Reference: PMC4405831, “Mast cell regulation of Na-glutamine co-transporters B0AT1 in villus and SN2 in crypt cells during chronic intestinal inflammation” (BMC Gastroenterology, 2015)

Tested on: T1, B0AT1
T1 construct: gene SLC6A19; native full-length transporter in brush border membrane vesicles from ileal villus cells; not purified
Test: 3H-glutamine uptake into villus BBMV, rapid filtration, […] s
Format: biochemical, Oryctolagus cuniculus
Settings: labelled compound; Na-dependent uptake (100 mM NaCl minus choline), pH 7.5, voltage clamped; normal (control) rabbits

- Km: 24 ± 1.5 mM
Structure (SMILES): NC(=O)CC[C@H](N)C(=O)O [glutamine]
